The NIST ThermoML archive (doi:10.1021/je100581m)

Assay: xn = mol fraction of the nth substance listed
Details: Liquid, Vibrating tube method

C=CC(C)(O)CCC=C(C)C (stereo not given) [3,7-dimethyl-1,6-octadien-3-ol] + CCCO
mass density [kg/m3]
Details	x2 = 0	x2 = 0.107	x2 = 0.206	x2 = 0.3066	x2 = 0.4064	x2 = 0.501	x2 = 0.6034	x2 = 0.7055	x2 = 0.7985	x2 = 0.898
283.15 K, 100 kPa	869.5	867	864.9	862.1	859	855.4	850.3	843.7	835.9	825.2
283.15 K, 5000 kPa	872.6	870.2	868.1	865.4	862.2	858.6	853.6	847	839.3	828.8
283.15 K, 10000 kPa	875.7	873.1	871	868.3	865.2	861.6	856.7	850	842.4	832
283.15 K, 15000 kPa	878.7	876.2	874.1	871.4	868.3	864.8	859.9	853.3	845.8	835.5
283.15 K, 20000 kPa	881.5	879	876.9	874.4	871.3	867.7	862.8	856.3	848.8	838.6
298.15 K, 100 kPa	857.3	854.8	852.7	849.9	846.8	843.2	838.2	831.6	824	813.4
298.15 K, 5000 kPa	860.6	858.1	856	853.3	850.2	846.7	841.7	835.1	827.7	817.2
298.15 K, 10000 kPa	863.9	861.4	859.4	856.6	853.6	850.1	845.2	838.7	831.2	820.8
298.15 K, 15000 kPa	867	864.6	862.6	859.9	856.8	853.3	848.5	842	834.6	824.4
298.15 K, 20000 kPa	870	867.7	865.6	863	859.9	856.5	851.6	845.2	837.9	827.8
313.15 K, 100 kPa	844.5	842.1	840.1	837.3	834.1	830.5	825.6	819.1	811.6	801.2
313.15 K, 5000 kPa	848.2	845.8	843.8	841.1	837.9	834.4	829.5	823.1	815.6	805.3
313.15 K, 10000 kPa	851.6	849.3	847.3	844.6	841.5	838	833.2	826.8	819.4	809.2
313.15 K, 15000 kPa	855	852.8	850.8	848.1	845.1	841.5	836.7	830.4	823.2	813.1
313.15 K, 20000 kPa	858.4	856.1	854.1	851.5	848.4	844.9	840.2	833.9	826.7	816.7
328.15 K, 100 kPa	831.7	829.4	827.3	824.5	821.3	817.7	812.8	806.3	799	788.7
328.15 K, 5000 kPa	835.6	833.3	831.2	828.5	825.3	821.8	816.9	810.5	803.3	793.1
328.15 K, 10000 kPa	839.5	837.2	835.2	832.5	829.3	825.8	821	814.7	807.5	797.5
328.15 K, 15000 kPa	843.1	840.9	838.8	836.2	833	829.5	824.8	818.5	811.4	801.5
328.15 K, 20000 kPa	846.7	844.4	842.4	839.8	836.7	833.2	828.5	822.3	815.2	805.3
